US6589993B2, “Treating vancomycin-intermediates and multiresistant staphylococci infection with thiamphenicol or a salt thereof” (Zambon Group S.p.A., priority 2000, dated 2003)
In brackets after ≈: the same amount, converted by molar mass. Read-outs that look alike come from different tables or passages of the source.

Tests used:
[1] = system: S. aureus Met-R multiresistant strains; assay: MIC determination (NCCLS broth microdilution), methicillin-resistant multiresistant S. aureus strains; assay type: cell-based, Staphylococcus aureus; conditions: Staphylococcus aureus; for MIC: antibiotype Oxa, Ery, read-out: MIC
Protocol: (§1) The MICs of thiamphenicol and of other antibiotics was obtained by using the method proposed by NCCLS (National Committee for Clinical Laboratory Standards, 1999).
(§2) Various antibiotic concentrations were added to bacteria in exponental growth (final inoculum 5×10^5 […]); dilution in Mb (cation-supplemented Mueller-Hinton broth) and distribution on a microplate by using an automatic diluting machine Biomek 1000 (Beckman, USA). MHb charged with 2% NaCl was used to test the methicillin activity.
(§3) The antibiotic concentration which hinders a visible growth after 18-24 hours of incubation at 37° C., was registered as MIC.
(§4) S. aureus ATCC 29213 was used as quality control strain.

[2] = system: S. aureus vancomycin-intermediates (VISA) Met-R strains; assay: MIC determination (NCCLS broth microdilution), VISA Met-R strains; assay type: cell-based, Staphylococcus aureus; conditions: for MIC: antibiotype Oxa, Cip, Clin, Ery
Protocol: as §1, §2, §3, §4

MIC ([1]; Strain 1, Cip, Clin, Gm): > 64 µg/mL
MIC ([1]; Strain 2, Clin, Fos): > 64 µg/mL
MIC ([1]; Strain 3, Cip, Clin, Gm): > 64 µg/mL
MIC ([1]; Strain 4, Cip, Gm): > 64 µg/mL
MIC ([1]; Strain 5, Cip, Clin): > 64 µg/mL
MIC ([1]; Strain 6, Clin, Gm): > 64 µg/mL
MIC ([1]; Strain 7, Cip, Gm): > 64 µg/mL
MIC ([1]; Strain 8, Cip, Clin): > 64 µg/mL
MIC ([1]; Strain 9, Cip, Clin, Gm): > 64 µg/mL
MIC ([1]; Strain 10, Cip, Clin, Gm): > 64 µg/mL
MIC ([1]; Strain 11, Clin, Rif): > 64 µg/mL
MIC ([1]; Strain 12, Cip, Clin): > 64 µg/mL
MIC ([1]; Strain 13, Cip, Clin): > 64 µg/mL
MIC ([1]; Strain 14, Clin, Cip): > 64 µg/mL
MIC ([1]; Strain 15, Cip, Clin, Gm): > 64 µg/mL
MIC ([1]; Strain 16, Cip, Clin): > 64 µg/mL
MIC ([1]; Strain 17, Cip, Clin): > 64 µg/mL
MIC ([1]; Strain 18, Cip, Clin, Gm): > 64 µg/mL
MIC ([1]; Strain 19, Cip, Clin, Gm): > 64 µg/mL
MIC ([1]; Strain 20, Cip, Clin, Gm): > 64 µg/mL
MIC ([1]; Strain 21, Cip, Clin, Gm): > 64 µg/mL
MIC ([1]; Strain 22, Cip, Clin): > 64 µg/mL
MIC ([1]; Strain 23, Cip, Clin, Gm): > 64 µg/mL
MIC ([1]; Strain 24, Cip, Clin, Gm): > 64 µg/mL
MIC ([1]; Strain 25, Cip, Clin, Gm): > 64 µg/mL
MIC ([1]; Strain 26, Cip, Clin, Fos, Gm): > 64 µg/mL
MIC ([1]; Strain 27, Cip, Clin, Fos, Gm): > 64 µg/mL
MIC ([1]; Strain 28, Cip, Clin, Gm): > 64 µg/mL
MIC ([1]; Strain 29, Clin, Fos): > 64 µg/mL
MIC ([1]; Strain 30, Cip, Clin, Gm, SXT, Dox): > 64 µg/mL
MIC ([1]; Strain 31, Cip, Clin, Fox, Gm): > 64 µg/mL
MIC ([1]; Strain 32, Cip, Clin, Gm, SXT, Rif): > 64 µg/mL
MIC ([1]; Strain 33, Cip, Clin, Gm): > 64 µg/mL
MIC ([1]; Strain 34, Cip, Clin, Gm): > 64 µg/mL
MIC ([1]; Strain 35, Cip, Clin, Gm): > 64 µg/mL
MIC ([1]; Strain 36, Cip, Clin, Fos): > 64 µg/mL
MIC ([1]; Strain 37, Cip, Clin, Fos, Gm): 64 µg/mL (≈ 87.2 µM)
MIC ([1]; Strain 38, Cip, Gm): > 64 µg/mL
MIC ([1]; Strain 39, Cip, Clin, Fos, Gm): 64 µg/mL (≈ 87.2 µM)
MIC ([1]; Strain 40, Cip, Clin, Gm): > 64 µg/mL
MIC ([1]; Strain 41, Cip, Clin): > 64 µg/mL
MIC ([1]; Strain 42, Cip, Clin, Gm): > 64 µg/mL
MIC ([1]; Strain 43, Cip, Clin, Gm): > 64 µg/mL
MIC ([1]; Strain 44, Cip, Clin, Gm, Rif, Dox): > 64 µg/mL
MIC ([1]; Strain 45, Cip, Clin, Gm, Rif, Dox, Fos): > 64 µg/mL
MIC ([1]; Strain 46, Clin, Fos): > 64 µg/mL
MIC ([1]; Strain 47, Cip, Clin, Gm): > 64 µg/mL
MIC ([1]; Strain 48, Cip, Clin): > 64 µg/mL
MIC ([1]; Strain 49, Cip, Gm): > 64 µg/mL
MIC ([1]; Strain 50, Cip, Clin, Gm, Rif, Dox): > 64 µg/mL
MIC50 ([1]; S. aureus (50) Met-R, read-out: MIC 50%): > 64 µg/mL
MIC90 ([1]; S. aureus (50) Met-R, read-out: MIC 90%): > 64 µg/mL
MIC ([2]; Staphylococcus aureus, Strain 51 VISA, read-out: MIC): > 64 µg/mL
MIC ([2]; Strain 52 VISA): >64 µg/mL
MIC Range ([2]; VISA (2) Met-R): >64 µg/mL
SMILES: CC[C@H]1OC(=O)[C@H](C)[C@@H](O[C@H]2C[C@@](C)(OC)[C@@H](O)[C@H](C)O2)[C@H](C)[C@@H](O[C@@H]2O[C@H](C)C[C@H](N(C)C)[C@H]2O)[C@](C)(O)C[C@@H](C)C(=O)[C@H](C)[C@@H](O)[C@]1(C)O [Erythromycin, erythromycin]
